From patent US20220033406A1, “C[…] AS ANTI-VIRALS” (priority 2018, published 2022)
Where two headings read alike, the source gives them in different places.

How the values were obtained:
HBV = experiment: Inhibition of HBV in HepG2.117 cells (anti-HBV activity, qPCR); type: cell-based; conditions: HBV viral DNA copy numbers in supernatant by qPCR
[1] = system: VSV-G pseudotyped HIV NL4-3; experiment: microbe, parasite or virus in culture; type: cell-based
[2] = Hepatitis B virus, HepG2.117, 96 h, Table 4 phosphoramidate prodrugs
[3] = Human immunodeficiency virus 1, NL43, 72 h, read-out: HIV EC50 (uM)
[4] = Hepatitis B virus, HepG2.117, 96 h, Table 2 nucleosides

Compound | EC50 (HBV; 96 h, Table 4 phosphoramidate prodrugs) [nM] | EC50 ([1]; read-out: HIV EC50) [µM] | EC50 (HBV; [2]) [nM] | EC50 [1, 3] [µM] | EC50 (HBV; [4]) [nM]
C=C1[C@@H](n2cnc3c(=O)[nH]c(N)nc32)C[C@H](O)[C@@]1(C#N)COP(=O)(N[C@@H](C)C(=O)OC(C)C)Oc1ccccc1 (single isomer, unassigned) [Example 43, Isopropyl ((R*)-(((1S,3S,5S)-3-(2-amino-6-oxo-1,6-dihydro-9H-purin-9-yl)-1-cyano-5-hydroxy-2-methylenecyclopentyl)methoxy)(phenoxy)phosphoryl)-L-alaninate] | 591 | 4.25 |  |  | 
C=C1[C@@H](n2cnc3c(=O)[nH]c(N)nc32)C[C@H](O)[C@@]1(C#N)COP(=O)(N[C@@H](C)C(=O)OC(C)C)Oc1ccccc1 (single isomer, unassigned) [Example 44, Isopropyl ((S*)-(((1S,3S,5S)-3-(2-amino-6-oxo-1,6-dihydro-9H-purin-9-yl)-1-cyano-5-hydroxy-2-methylenecyclopentyl)methoxy)(phenoxy)phosphoryl)-L-alaninate] |  |  | 459 | 2.29 | 
C=C1[C@@H](n2ccc3c(N)ncnc32)C[C@H](O)[C@@]1(F)CO [Example 1, (1S,2S,4S)-4-(4-Amino-7H-pyrrolo[2,3-d]pyrimidin-7-yl)-2-fluoro-2-(hydroxymethyl)-3-methylenecyclopentan-1-ol] |  |  |  |  | 10.9
C=C1[C@H](CO)[C@@H](O)C[C@@H]1n1ccc2c(=O)[nH]c(N)nc21 [Example 2, 2-Amino-7-((1S,3R,4S)-4-hydroxy-3-(hydroxymethyl)-2-methylenecyclopentyl)-3,7-dihydro-4H-pyrrolo[2,3-d]pyrimidin-4-one] |  |  |  | > 33.3 | > 10000
C=C1[C@@H](n2cc(C)c(=O)[nH]c2=O)C[C@H](O)[C@@]1(F)CO [Example 3, 1-((1S,3S,4S)-3-Fluoro-4-hydroxy-3-(hydroxymethyl)-2-methylenecyclopentyl)-5-methylpyrimidine-2,4(1H,3H)-dione] |  |  |  | > 33.3 | > 10000
C=C1[C@@H](n2cnc3c(=O)[nH]c(N)nc32)C[C@H](O)[C@@]1(F)CO [Example 4, 2-Amino-9-((1S,3S,4S)-3-fluoro-4-hydroxy-3-(hydroxymethyl)-2-methylenecyclopentyl)-1,9-dihydro-6H-purin-6-one] |  |  |  | 0.0356 | < 0.9
C=C1[C@H](n2cnc3c(=O)[nH]c(N)nc32)C[C@H](O)[C@]1(F)CO [Example 5, 2-Amino-9-((1R,3R,4S)-3-fluoro-4-hydroxy-3-(hydroxymethyl)-2-methylenecyclopentyl)-1,9-dihydro-6H-purin-6-one] |  |  |  | > 33.3 | 2470
C=C1[C@@H](n2cnc3c(N)ncnc32)C[C@H](O)[C@@]1(F)CO [Example 6, (1S,2S,4S)-4-(6-Amino-9H-purin-9-yl)-2-fluoro-2-(hydroxymethyl)-3-methylenecyclopentan-1-ol] |  |  |  | 2.68 | 61.7
C=C1[C@H](n2cnc3c(N)ncnc32)C[C@H](O)[C@]1(F)CO [Example 7, (1S,2R,4R)-4-(6-Amino-9H-purin-9-yl)-2-fluoro-2-(hydroxymethyl)-3-methylenecyclopentan-1-ol] |  |  |  | > 33.3 | > 10000
C=C1[C@H](CO)[C@@H](O)C[C@@H]1n1ccc2c(N)ncnc21 [Example 9, (1S,2R,4S)-4-(4-Amino-7H-pyrrolo[2,3-d]pyrimidin-7-yl)-2-(hydroxymethyl)-3-methylenecyclopentan-1-ol] |  |  |  | > 33.3 | 7410
C=C1[C@@H](n2cnc3c(=O)[nH]c(N)nc32)C[C@H](O)[C@]1(CO)CF [Example 10, 2-Amino-9-((1S,3S,4S)-3-(fluoromethyl)-4-hydroxy-3-(hydroxymethyl)-2-methylenecyclopentyl)-1,9-dihydro-6H-purin-6-one] |  |  |  | 0.662 | 166
C=C1[C@@H](n2ccc(N)nc2=O)C[C@H](O)[C@]1(CO)CF [Example 11, 4-Amino-1-((1S,3S,4S)-3-(fluoromethyl)-4-hydroxy-3-(hydroxymethyl)-2-methylenecyclopentyl)pyrimidin-2(1H)-one] |  |  |  | 0.911 | 9180
C=C1[C@@H](n2cc(C)c(=O)[nH]c2=O)C[C@H](O)[C@]1(CO)CF [Example 12, 1-((1S,3S,4S)-3-(fluoromethyl)-4-hydroxy-3-(hydroxymethyl)-2-methylenecyclopentyl)-5-methylpyrimidine-2,4(1H,3H)-dione] |  |  |  | > 33.3 | > 10000
C=C1[C@@H](n2cnc3c(N)ncnc32)C[C@H](O)[C@]1(CO)CF [Example 13, (1S,2S,4S)-4-(6-Amino-9H-purin-9-yl)-2-(fluoromethyl)-2-(hydroxymethyl)-3-methylenecyclopentan-1-ol] |  |  |  | 5.02 | > 5530
C=C1[C@@H](n2cnc3c(N)ncnc32)C[C@H](O)[C@]1(CO)CCl [Example 14, (1S,2S,4S)-4-(6-Amino-9H-purin-9-yl)-2-(chloromethyl)-2-(hydroxymethyl)-3-methylenecyclopentan-1-ol] |  |  |  | 1.08 | 3450
C=C1[C@@H](n2cc(C)c(=O)[nH]c2=O)C[C@H](O)[C@@]1(C#N)CO [Example 15, (1S,3S,5S)-5-Hydroxy-1-(hydroxymethyl)-3-(5-methyl-2,4-dioxo-3,4-dihydropyrimidin-1(2H)-yl)-2-methylenecyclopentane-1-carbonitrile] |  |  |  | > 33.3 | > 10000
C=C1[C@@H](n2ccc(N)nc2=O)C[C@H](O)[C@@]1(C#N)CO [Example 16, (1S,3S,5S)-3-(4-Amino-2-oxopyrimidin-1(2H)-yl)-5-hydroxy-1-(hydroxymethyl)-2-methylenecyclopentane-1-carbonitrile] |  |  |  | 5.83 | > 10000
C=C1[C@@H](n2cnc3c(N)ncnc32)C[C@H](O)[C@@]1(C#N)CO [Example 17, (1S,3S,5S)-3-(6-Amino-9H-purin-9-yl)-5-hydroxy-1-(hydroxymethyl)-2-methylenecyclopentane-1-carbonitrile] |  |  |  | 2.21 | > 10000
C=C1[C@@H](n2cnc3c(=O)[nH]c(N)nc32)C[C@H](O)[C@@]1(C#N)CO [Example 18, (1S,3S,5S)-3-(2-Amino-6-oxo-1,6-dihydro-9H-purin-9-yl)-5-hydroxy-1-(hydroxymethyl)-2-methylenecyclopentane-1-carbonitrile] |  |  |  | 0.12 | 46.6
C#C[C@]1(CO)C(=C)[C@@H](n2cnc3c(N)ncnc32)C[C@@H]1O [Example 19, (1S,2R,4S)-4-(6-Amino-9H-purin-9-yl)-2-ethynyl-2-(hydroxymethyl)-3-methylenecyclopentan-1-ol] |  |  |  | 0.0665 | > 10000
C=C[C@]1(CO)C(=C)[C@@H](n2cnc3c(N)ncnc32)C[C@@H]1O [Example 20, (1S,2R,4S)-4-(6-Amino-9H-purin-9-yl)-2-(hydroxymethyl)-3-methylene-2-vinylcyclopentan-1-ol] |  |  |  | 0.547 | > 10000
C#C[C@]1(COP(=O)(N[C@@H](C)C(=O)OC(C)C)Oc2ccccc2)C(=C)[C@@H](n2cnc3c(N)ncnc32)C[C@@H]1O (stereo partly drawn) [Example 38, Isopropyl ((((1R,3S,5S)-3-(6-amino-9H-purin-9-yl)-1-ethynyl-5-hydroxy-2-methylenecyclopentyl)methoxy)(phenoxy)phosphoryl)-L-alaninate] |  |  | 2370 | 0.0506 | 
C=C1[C@@H](n2cnc3c(N)ncnc32)C[C@H](O)[C@@]1(F)COP(=O)(N[C@@H](C)C(=O)OCC(C)(C)C)Oc1ccccc1 (stereo partly drawn) [Example 39, Neopentyl ((((1S,3S,5S)-3-(6-amino-9H-purin-9-yl)-1-fluoro-5-hydroxy-2-methylenecyclopentyl)methoxy)(phenoxy)phosphoryl)-L-alaninate] |  |  | 0.3 | 0.0139 | 
C=C1[C@@H](n2cnc3c(N)ncnc32)C[C@H](O)[C@@]1(CF)COP(=O)(N[C@@H](C)C(=O)OC(C)C)Oc1ccccc1 (stereo partly drawn) [Example 40, Isopropyl ((((1S,3S,5S)-3-(6-amino-9H-purin-9-yl)-1-(fluoromethyl)-5-hydroxy-2-methylenecyclopentyl)methoxy)(phenoxy)phosphoryl)-L-alaninate] |  |  | 13.7 | 0.144 | 
C=C1[C@@H](n2cc(C)c(=O)[nH]c2=O)C[C@H](O)[C@@]1(C#N)COP(=O)(N[C@@H](C)C(=O)OC(C)C)Oc1ccccc1 (stereo partly drawn) [Example 41, Isopropyl ((((1S,3S,5S)-1-cyano-5-hydroxy-3-(5-methyl-2.4-dioxo-3.4-dihydropyrimidin-1(2H)-yl)-2-methylenecyclopentyl)methoxy)(phenoxy)phosphoryl)-L-alaninate] |  |  | > 10000 | 10.2 | 
C=C1[C@@H](n2ccc(N)nc2=O)C[C@H](O)[C@@]1(C#N)COP(=O)(N[C@@H](C)C(=O)OC(C)C)Oc1ccccc1 (stereo partly drawn) [Example 42, Isopropyl ((((1S,3S,5S)-3-(4-amino-2-oxopyrimidin-1(2H)-yl)-1-cyano-5-hydroxy-2-methylenecyclopentyl)methoxy)(phenoxy)phosphoryl)-L-alaninate] |  |  | > 10000 | 10.4 | 
